Laboratory results: PubChem BioAssay AID1645863 (Buhrlage Lab, Dana-Farber Cancer Institute and Novartis …, 2021)
pIC50: −log10 of the molar value. Active and inactive are the calls of the source. No rule for the calls is given here.

Target: Ubiquitin carboxyl-terminal hydrolase 10 (Homo sapiens) (UniProt Q14694)
Assay: ubiquitin-specific protease 10 DUB inhibitors, concentration-effect, biochemical, verification of primary screen actives (AID 1645863);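 also: potency values describe inhibition of USP10 cleavage of a fluorogenic ubiquitin substrate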
Conditions: USP10 deubiquitinase enzymatic assay

Ubiquitin carboxyl-terminal hydrolase 10 (Homo sapiens), sequence (Q14694 whole entry, looked up): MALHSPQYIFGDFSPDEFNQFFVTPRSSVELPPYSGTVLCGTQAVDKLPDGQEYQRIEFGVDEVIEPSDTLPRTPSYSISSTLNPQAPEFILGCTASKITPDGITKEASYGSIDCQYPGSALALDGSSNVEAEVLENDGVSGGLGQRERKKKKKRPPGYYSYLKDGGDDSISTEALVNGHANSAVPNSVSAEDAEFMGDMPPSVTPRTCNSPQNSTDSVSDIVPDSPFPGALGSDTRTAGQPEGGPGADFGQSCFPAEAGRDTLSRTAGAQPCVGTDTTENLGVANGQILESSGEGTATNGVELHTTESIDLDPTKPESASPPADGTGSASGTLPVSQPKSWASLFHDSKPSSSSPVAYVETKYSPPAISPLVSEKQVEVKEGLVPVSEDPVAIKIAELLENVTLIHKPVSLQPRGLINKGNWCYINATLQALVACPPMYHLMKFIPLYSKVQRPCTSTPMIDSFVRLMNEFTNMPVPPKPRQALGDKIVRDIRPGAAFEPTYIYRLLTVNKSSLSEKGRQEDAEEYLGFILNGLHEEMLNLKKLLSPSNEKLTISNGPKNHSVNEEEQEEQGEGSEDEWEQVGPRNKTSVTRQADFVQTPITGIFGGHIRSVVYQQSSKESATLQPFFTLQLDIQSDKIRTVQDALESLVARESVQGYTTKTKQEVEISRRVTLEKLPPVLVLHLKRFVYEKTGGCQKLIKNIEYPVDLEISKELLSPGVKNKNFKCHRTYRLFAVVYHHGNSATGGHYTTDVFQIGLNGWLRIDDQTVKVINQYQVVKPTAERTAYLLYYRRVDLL

SMILES | IC50 | pIC50
Cc1cc(Cl)ccc1NC(=O)c1cc(-c2cccnc2)n[nH]1 | > 40 µM (inactive) | 
Cc1cc(NC(=O)Cn2c(=O)n(CCCCC(=O)NCc3ccco3)c(=O)c3ccccc32)ccc1Br |  | 4.84
Cc1occ2c1C(=O)c1c(O)ccc(O)c1C2 |  | 5.32
Cn1c2ccccc2c(=O)c2c(=O)n(Cc3ccco3)c(-c3ccccc3F)nc21 |  | 5.08
C=C/C(=C/C(=O)C[C@H](C)C[C@@H](C)CC[C@H](O)[C@H](C)C(=O)CC(O)[C@H](C)[C@@H](C)OC(=O)C[C@@H](O)C1=C(C)C(=O)OC1=O)CC (stereo not given in full) |  | 5.04
COc1cc(O)c2c(O)c3c(cc2c1)C[C@@]1(O)CC(=O)C(C(N)=O)=C(O)[C@@]1(O)C3=O |  | 5.13
COc1ccc(-c2cc3nc([C@H](C)NC(=O)Cc4ccccc4C)nn3cn2)cc1 | > 40 µM (inactive) | 
O=C(O)c1cccc(NC(=O)C(Sc2cccc(NC(=O)c3cccc(Cl)c3)c2)c2ccccc2)c1 (stereo not given) |  | 5.00
Cc1ccc(NC(=O)Cn2cncc(-c3nc(-c4ccccc4)cs3)c2=O)cc1F |  | 4.64
COc1ccc(NC(=O)Cn2c(C)cc(=O)n3nc(-c4cccc(C)c4)nc23)cc1 |  | 4.43
COc1ccc(Nc2nc3c(S(=O)(=O)c4ccc(C)cc4)nnn3c3ccsc23)c(OC)c1 |  | 4.98
CS(=O)(=O)c1cccc(-c2nnc(NC(=O)c3ccc(Cc4ccccc4)cc3)o2)c1 | > 40 µM (inactive) | 
COc1ccc(-c2onc(C)c2C)cc1S(=O)(=O)NCc1ccc(F)cc1 | > 40 µM (inactive) | 
CCOc1ccc(-n2c(SCC(=O)Nc3ccc(C)cc3)nnc2-c2c[nH]c3ccccc23)cc1 |  | 5.05
COC(=O)c1ccc2c(=O)n(CCCCCC(=O)NCCc3ccccc3Cl)c(=O)[nH]c2c1 | > 40 µM (inactive) | 
Cc1c(C#N)c2ccccc2n1CC(=O)NCc1ccc2c(c1)OCO2 | > 40 µM (inactive) | 
O=C(NCc1ccc(Cl)cc1)c1cc2c(s1)-c1ccccc1OC2 | > 40 µM (inactive) | 
COc1ccc(CC(=O)Nc2ccccc2-c2nc3ccccc3[nH]2)cc1OC |  | 4.44
Cc1cccc(OCCn2c(CCNC(=O)C3CCCCC3)nc3ccccc32)c1 |  | 4.79
O=C(COc1ccc(N2CC(C(=O)NCc3ccccc3)CC2=O)cc1)Nc1ccc(F)cc1 (stereo not given) | > 40 µM (inactive) | 
CCc1ccc(NC(=O)Cc2nnc3cc(-c4nc(C)no4)ccn23)cc1 |  | 4.90
CCCn1cc(C(=O)N2CCC3(CC2)CC2(CO3)Nc3ccccc3-n3cccc32)c(C)n1 (stereo not given) | > 40 µM (inactive) | 

SMILES | IC50 | pIC50
COc1cccc(N2CCCN(C(=O)c3ccc4nc(C)[nH]c4c3)CC2)c1 | > 40 µM (inactive) | 
O=C(Cn1ccc2ccn(Cc3ccccc3)c2c1=O)Nc1ccccc1Cl | > 40 µM (inactive) | 
Cc1ccccc1-c1nnc2sc(COc3ccc(Cl)cc3)nn12 | > 40 µM (inactive) | 
COc1cc2cc3c(c(O)c2c(O)c1-c1c(OC)cc2cc4c(c(O)c2c1O)C(=O)OC1CC(C)OC41)C(=O)OC1CC(C)OC31 (stereo not given) |  | 5.04
O=C(CSc1nc2c(cnn2-c2ccccc2)c(=O)[nH]1)Nc1ccc(Cl)cc1F | > 40 µM (inactive) | 
COc1ccc(Cn2nc(C)cc2NC(=O)c2cccc(F)c2)cc1OC | > 40 µM (inactive) | 
Cc1ccc(S(=O)(=O)Nc2cccc(Cl)c2)cc1NC(=O)CCC(=O)c1ccc(Cl)cc1 | > 40 µM (inactive) | 
O=C(CSc1oc(-c2ccc(F)cc2)nc1S(=O)(=O)c1ccc(F)cc1)Nc1ccc(F)cc1 |  | 4.46
O=C(NC1(O)C(=O)c2ccccc2C1=O)c1cccc2c1-c1ccccc1C2=O |  | 4.99
CCOc1ccc(CCNC(=O)Cn2c(-c3ccc(F)cc3)cc(C(C)=O)c2C)cc1OCC | > 40 µM (inactive) | 
Fc1ccccc1-c1nc2c3cnn(-c4ccccc4)c3ncn2n1 | > 40 µM (inactive) | 
Nc1ccc(C(=O)OCC(=O)NC2CCCc3ccccc32)cc1[N+](=O)[O-] (stereo not given) |  | 4.42
O=C(O)c1ccccc1C(=O)Nc1ccc(SC(C(=O)Nc2ccccc2Cl)c2ccccc2)cc1 (stereo not given) |  | 4.77
Cc1cccc(Cl)c1NC(=O)Nc1ccc(NC(=O)c2ccccc2O)cc1 |  | 4.88
O=C(CCc1ccc(F)cc1)N1CCOC(CCc2cc(=O)[nH]cn2)C1 (stereo not given) | > 40 µM (inactive) | 
Cc1cc(-c2nnc(SCC(=O)Nc3ccc(Br)c(C)c3)n2N)n[nH]1 | > 40 µM (inactive) | 
O=C(CCc1ccc(S(=O)(=O)N2CCOCC2)cc1)OCC(=O)c1ccc(-c2ccccc2)cc1 |  | 4.41
CC1=CC(=O)C(C2=C(O)C(=O)C(C)=CC2=O)=C(O)C1=O |  | 4.92
Cc1ccccc1-c1noc(-c2cccn(CC(=O)Nc3ccccc3F)c2=O)n1 | > 40 µM (inactive) | 
Cc1c(C(=O)NCc2cccc(Br)c2)oc2c1-c1[nH]ncc1CC2 | > 40 µM (inactive) | 
COc1cccc(NC(=O)c2cn(-c3cc(N4CCCC4)ncn3)cn2)c1 | > 40 µM (inactive) | 

Other lines, results leading:

IC50 | pIC50 | SMILES
> 40 µM (inactive) |  | O=C(Nc1ccccc1C(=O)NC1CCSC1)c1ccc([N+](=O)[O-])cc1 (stereo not given)
> 40 µM (inactive) |  | Cc1ccc(CNC(=O)c2cccc(N3C(=O)N4CCc5c([nH]c6ccccc56)[C@@]4(C)C3=O)c2)cc1
> 40 µM (inactive) |  | COc1ccc(-c2n[nH]n3c2nc(=O)c2ccc(C(=O)NCc4ccco4)cc23)cc1
> 40 µM (inactive) |  | Cc1ccc(CNC(=O)c2ccc3nn(CC(=O)Nc4ccccc4F)c(=O)n3c2)cc1
> 40 µM (inactive) |  | COc1ccc(NC(=O)CNC(=O)c2ccc3nc(-n4cccc4)sc3c2)cc1
> 40 µM (inactive) |  | COc1ccccc1-c1noc(CCCC(=O)Nc2ccccc2)n1
> 40 µM (inactive) |  | NC(=O)c1nc(-c2cccnc2)nc2c1[nH]c(=O)n2-c1ccc2c(c1)OCO2
 | 4.41 | CC(=O)[C@H]1c2c(c(O)c3c(O)cccc3c2-c2c3c(c(O)c4c(O)cccc24)C(=O)C[C@](C)(O)[C@H]3C(C)=O)C(=O)C[C@]1(C)O
 | 4.88 | COc1ccc(NC(=O)Cn2cc(C(=O)c3ccc(Cl)cc3)c(=O)c3cc(F)ccc32)cc1
 | 4.94 | O=C1C(=O)N(c2nc3ccc(F)cc3s2)C(c2ccc(F)cc2)/C1=C(\O)c1ccc(F)cc1 (stereo not given)
 | 4.80 | CC(OC(=O)c1cc(S(=O)(=O)Nc2ccccc2F)ccc1Cl)C(=O)Nc1ccc([N+](=O)[O-])cc1C(F)(F)F (stereo not given)
> 40 µM (inactive) |  | CCc1ccc(-n2c(C)cc(/C=C3\C(=N)N4N=CSC4=NC3=O)c2C)cc1
> 40 µM (inactive) |  | Cc1cc(Cl)ccc1NC(=O)c1cc(-c2ccncc2)n[nH]1
> 40 µM (inactive) |  | Cc1nn(-c2ccccc2)c2c1N=C1C(Cl)=CC(Cl)=CN1C21C(=O)Nc2ccccc21 (stereo not given)
> 40 µM (inactive) |  | N#Cc1cc(C(=O)c2cc(Cl)ccc2O)cn(-c2ccccn2)c1=O
 | 4.74 | COc1ccc(-c2cc(-c3ccc(F)cc3)[nH]c(=O)c2C#N)cc1
> 40 µM (inactive) |  | COc1ccc(N/C=C/c2onc(C)c2[N+](=O)[O-])c(OC)c1
> 40 µM (inactive) |  | COc1ccc(/C=C/C(=O)Nc2ccc3nc(N4CCN(c5ncccn5)CC4)cc(C)c3c2)cc1
> 40 µM (inactive) |  | CCNS(=O)(=O)c1ccc(-c2ccc(-n3cnnn3)cc2)cc1
 | 4.93 | O=C(COc1ccc(N2CC(C(=O)NCc3ccc4c(c3)OCO4)CC2=O)cc1)Nc1ccc(Cl)cc1 (stereo not given)
 | 5.13 | CC1OC2CC(O)C1(O)C1=C2C(O)=C(C(N)=O)C(=N)C1=O (stereo not given)
 | 4.56 | O=C(CCCC(=O)N(c1ccc2c(c1)OCCO2)C(C(=O)NC1CCCCC1)c1ccc(F)cc1)Nc1ccccn1 (stereo not given)
